Article PMC10705919 (International Journal of Molecular Sciences, 2023)

Target: T1, TRPV4 (Canis lupus, UniProt A0A8I3PAV3)
T1 construct: endogenous channel in MDCK cells
Assay: whole-cell patch clamp, block of GSK1016790A-evoked currents in MDCK cells
Type: cell-based

T1 sequence (A0A8I3PAV3 1-828): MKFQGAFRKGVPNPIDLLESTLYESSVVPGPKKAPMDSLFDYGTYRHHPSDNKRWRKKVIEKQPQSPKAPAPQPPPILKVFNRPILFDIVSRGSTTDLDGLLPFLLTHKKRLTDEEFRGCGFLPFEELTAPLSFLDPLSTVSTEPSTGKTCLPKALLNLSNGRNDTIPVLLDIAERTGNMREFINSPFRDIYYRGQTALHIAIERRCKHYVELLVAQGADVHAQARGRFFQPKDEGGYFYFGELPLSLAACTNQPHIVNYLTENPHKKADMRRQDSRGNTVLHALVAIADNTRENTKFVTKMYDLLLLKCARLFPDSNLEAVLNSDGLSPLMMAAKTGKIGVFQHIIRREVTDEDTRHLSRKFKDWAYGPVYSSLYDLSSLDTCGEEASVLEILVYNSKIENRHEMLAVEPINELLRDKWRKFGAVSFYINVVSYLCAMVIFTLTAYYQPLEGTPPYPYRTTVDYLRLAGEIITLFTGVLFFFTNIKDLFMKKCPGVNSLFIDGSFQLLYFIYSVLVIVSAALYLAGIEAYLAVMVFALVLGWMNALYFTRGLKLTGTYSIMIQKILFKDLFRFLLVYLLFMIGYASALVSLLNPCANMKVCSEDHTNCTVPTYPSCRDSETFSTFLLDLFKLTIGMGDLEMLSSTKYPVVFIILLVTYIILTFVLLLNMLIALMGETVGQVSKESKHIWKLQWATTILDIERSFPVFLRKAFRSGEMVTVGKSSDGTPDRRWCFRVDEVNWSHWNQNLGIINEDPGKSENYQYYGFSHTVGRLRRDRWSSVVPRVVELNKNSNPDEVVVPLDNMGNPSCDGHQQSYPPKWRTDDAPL

SMILES: Cc1c(C(=O)Nc2cccc(C(F)(F)F)c2)cc(-c2ccccc2)n1CCCN1CCOCC1 [HC, HC-067047]
- whole-cell patch clamp, block of GSK1016790A-evoked currents in MDCK cells: the addition of HC significantly decreases the transient enhancement of dIm induced by GSK alone
